The text below walks through data of US20030186334A1, “KTS-disintegrins” (Temple University - Of the Commonwealth System of Higher …, priority 2001, published 2003).

A value given as a limit tells only on which side of the number the result lay.

One assay concerns Lewis lung carcinoma. In words: Lewis lung carcinoma growth in syngeneic mouse model. The assay is classed as in vivo, C57BL/6 mice. As to conditions: 5 mg/kg intraperitoneally once daily for eight days. As for the experimental part:
Lewis lung carcinoma cells (1×10^6) were injected under the skin of the C57BL/6 mice (Tacoma Inc., Germantown, N.Y.), and tumors were allowed to grow for one week. The average tumor size after one week of growth was approximately 0.08 cm^3. The one-week time-point was called “day 0.” Two treatment groups of four mice each were injected intraperitoneally once daily with either 5 mg/kg obtustatin or 5 mg/kg echistatin beginning on day 0 for a total of eight days. A control group of four mice received only PBS. Tumor volume was measured daily using the formula length×width^2×0.52.

A further assay concerns the target T1, α1β1 integrin (Homo sapiens, UniProt P05556+P56199).
T1 construct: expressed in transfected cells; host or cells: α1K562 cells
In words: adhesion of α1K562 cells to collagen I. The format is cell-based. To be noted: α1β1, Coll I. The method, then:
(§1) Adhesive ligands for the selected integrins consisted of collagen IV (0.2 μg/well), collagen I, fibronectin, or vascular cell adhesion molecule-1 (VCAM-1). Adhesive ligands in 0.02 M acetic acid were immobilized overnight at 4° C. on a 96-well plate. Plates were then blocked with 1% (w/v) BSA (bovine serum albumin) in Hank's Balanced Salt Solution (HBSS) containing 3 mM Mg^2+ at room temperature for 1-2 hours to prevent cells from non-specifically binding to the plates. α1K562, α2K562, K562, A5, and Jurkat cells expressing the α1β1, α2β1, α5β1, αIIbβ3, and α4β1 integrins respectively were labeled by incubation with 12.5 μM 5-chloromethylfluorescein diacetate (CMFDA) in HBSS for 15 minutes at 37° C. CMFDA labeled cells were then pelleted, washed and resuspended in HBSS buffer containing 3 mM Mg^2+ and 1% (w/v) BSA. […] Plates were then incubated at 37° C. for 30 minutes as indicated in Table 5 and washed three times with HBSS containing 3 mM Mg^2+ and 1% (w/v) BSA to remove unbound cells. Bound cells were lysed using 0.5% (v/v) Triton X-100 in H2O. Fluorescent CMFDA released by lysis of adherent cells in a given well was read using a Cytofluor 2350 fluorescence plate reader.
(§2) The effect of obtustatin, viperisrastatin, echistatin, and eristostatin on the binding of selected integrins to their adhesive ligands was evaluated using the cell adhesion assay described in Example 6. The integrin-expressing cells, integrins and corresponding adhesive ligands, and the results of the cell adhesion assay are shown in Table 6.

Assay [1] has as its system human melanoma cells (MV3). The assay can be described thus: apoptosis by caspase-3 levels in melanoma MV3 cells. The format is cell-based. The method, then: (§3) The mechanisms of the cancer-suppressing effect observed for obtustatin were investigated as follows. Dermal microvascular endothelial cells (EC) and human melanoma cells (MV3) were cultured and exposed to TNF-α, vincristine and obtustatin. (TNF-α and vincristine are compounds which induce cell death by apoptosis in both normal and cancerous cells.) Control cells received only vehicle. The extent of apoptosis was measured by determining caspase-3 levels.

The subject of another assay is HMVECs. The assay can be described thus: endothelial cell tube formation assay on Matrigel. The format is cell-based, human. To be noted: 60 μM, 24 hours. As for the experimental part: An endothelial cell tube formation assay was performed to assess the anti-angiogenic effect of obtustatin in vitro as follows. Twenty-four well plates were coated with a 1:2 dilution of Matrigel™ in EBM-2 medium, which was polymerized by incubation for 1 hour at 37° C. HMVECs (1.2×10^5 cells per well) were added onto the polymerized Matrigel™ (BD Biosciences, Lexington, Ky.) in EBM-2 medium, in the absence or presence of 60 μM obtustatin. The plates were incubated for 24 hours at 37° C., and analyzed for the extent of tube formation by observation with an inverted microscope, using a magnification of 10× ocular and 10× objective.

A further assay has as its target α2β1 integrin (Homo sapiens, UniProt P05556+P17301). The assay can be described thus: adhesion of α2K562 cells to collagen I. The assay is classed as cell-based. Set-up: expressed in transfected cells; host or cells: α2K562 cells. The method, then:
as §1, §2

The test system of assay [2] is human microvascular endothelial cells (HMVECs). The assay can be described thus: BrdU incorporation growth assay in HMVECs. To be noted: 2 μM. The format is cell-based. As for the experimental part: Human microvascular endothelial cells (HMVECs) and melanoma cells (HS.939T) were cultured and treated with vehicle (control), 2 μM obtustatin, 2 μM echistatin or 50 ng/ml TNF-α. Growth of the cells was determined by a standard BrdU incorporation assay (Chemicon), according to the manufacturer's instructions.
(In general: Uptake of a labelled nucleoside into DNA is a usual measure of proliferation.)

The test system of a further assay is angiogenesis. The assay can be described thus: Japanese quail chorioallantoic membrane (CAM) angiogenesis assay. The assay is classed as in vivo. As to conditions: 20 μg and 50 μg, no angiogenesis stimulators. As for the experimental part: The disintegrins obtustatin and eristostatin were evaluated for their effect on angiogenesis via a Japanese quail chorioallantoic membrane (CAM) assay, as is known in the art (see, for example, Parsons-Wingerter P et al., “A Novel Assay of Angiogenesis in the Quail Chorioallantoic Membrane: Stimulation by bFGF and Inhibition by Angiostatin According to Fractal Dimension and Grid Intersection.” Microvascular Research 55(3):201-214, 1998, the disclosure of which is herein incorporated by reference).

Another assay concerns the target T2, α4β1 integrin (Homo sapiens, UniProt P05556+P13612).
T2 construct: endogenous in cells; host or cells: Jurkat cells
In words: adhesion of Jurkat cells to VCAM-1. The assay is classed as cell-based. To be noted: α4β1, VCAM-1. The method, then:
as §1, §2

Assay [3] concerns dermal microvascular endothelial cells (EC). The assay can be described thus: apoptosis by caspase-3 levels in dermal microvascular endothelial cells. The format is cell-based. The method, then:
as §3

T1 sequence (P56199 29-1179): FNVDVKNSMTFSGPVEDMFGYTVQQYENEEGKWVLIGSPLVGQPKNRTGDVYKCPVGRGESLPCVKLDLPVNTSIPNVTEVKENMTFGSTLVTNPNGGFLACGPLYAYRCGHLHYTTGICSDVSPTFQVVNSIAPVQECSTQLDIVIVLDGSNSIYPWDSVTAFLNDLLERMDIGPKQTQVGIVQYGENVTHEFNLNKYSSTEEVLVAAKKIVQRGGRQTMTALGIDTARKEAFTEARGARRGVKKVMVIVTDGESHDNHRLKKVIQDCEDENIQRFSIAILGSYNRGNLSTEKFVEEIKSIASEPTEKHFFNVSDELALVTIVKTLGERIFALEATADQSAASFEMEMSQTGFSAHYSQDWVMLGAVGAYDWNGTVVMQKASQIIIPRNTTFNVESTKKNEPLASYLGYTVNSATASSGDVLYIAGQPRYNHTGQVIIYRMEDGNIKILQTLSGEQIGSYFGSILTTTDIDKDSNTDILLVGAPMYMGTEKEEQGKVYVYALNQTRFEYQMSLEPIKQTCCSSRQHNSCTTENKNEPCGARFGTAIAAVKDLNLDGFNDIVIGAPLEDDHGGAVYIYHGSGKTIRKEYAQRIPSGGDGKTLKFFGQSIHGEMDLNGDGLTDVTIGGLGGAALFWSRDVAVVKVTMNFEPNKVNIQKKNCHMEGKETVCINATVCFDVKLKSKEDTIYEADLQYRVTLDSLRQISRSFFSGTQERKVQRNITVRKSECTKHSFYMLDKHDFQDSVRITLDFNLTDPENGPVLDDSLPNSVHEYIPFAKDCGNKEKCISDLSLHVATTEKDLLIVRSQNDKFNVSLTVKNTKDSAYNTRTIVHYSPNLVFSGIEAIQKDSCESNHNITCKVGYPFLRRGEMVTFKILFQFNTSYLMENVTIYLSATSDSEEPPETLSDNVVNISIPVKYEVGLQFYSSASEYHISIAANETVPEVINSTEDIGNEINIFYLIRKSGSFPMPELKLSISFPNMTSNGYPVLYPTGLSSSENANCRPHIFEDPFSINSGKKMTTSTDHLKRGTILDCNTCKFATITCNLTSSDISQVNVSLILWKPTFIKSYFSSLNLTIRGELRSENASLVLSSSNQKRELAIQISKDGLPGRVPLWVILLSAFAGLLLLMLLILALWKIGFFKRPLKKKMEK
T1 sequence (P05556 21-798): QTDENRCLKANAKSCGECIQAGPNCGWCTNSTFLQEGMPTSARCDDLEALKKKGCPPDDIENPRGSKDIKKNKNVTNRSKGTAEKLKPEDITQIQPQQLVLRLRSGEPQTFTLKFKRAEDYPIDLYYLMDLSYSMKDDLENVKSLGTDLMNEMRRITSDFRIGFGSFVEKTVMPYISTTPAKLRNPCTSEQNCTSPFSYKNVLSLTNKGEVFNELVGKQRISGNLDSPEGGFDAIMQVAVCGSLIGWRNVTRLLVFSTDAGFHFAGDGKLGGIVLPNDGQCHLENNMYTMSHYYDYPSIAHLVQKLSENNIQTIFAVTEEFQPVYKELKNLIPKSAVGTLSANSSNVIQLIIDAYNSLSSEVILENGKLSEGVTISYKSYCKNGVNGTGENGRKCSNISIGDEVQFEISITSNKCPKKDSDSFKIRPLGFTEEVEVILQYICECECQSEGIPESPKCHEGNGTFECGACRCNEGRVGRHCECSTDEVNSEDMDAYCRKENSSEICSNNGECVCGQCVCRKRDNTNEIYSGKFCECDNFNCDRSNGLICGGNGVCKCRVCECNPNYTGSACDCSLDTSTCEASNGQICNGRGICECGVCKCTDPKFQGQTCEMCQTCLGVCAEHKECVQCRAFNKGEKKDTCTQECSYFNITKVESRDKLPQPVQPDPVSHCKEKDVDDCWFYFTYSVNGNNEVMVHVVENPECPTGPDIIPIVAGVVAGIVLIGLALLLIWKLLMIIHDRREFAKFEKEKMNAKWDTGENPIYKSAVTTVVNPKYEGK

The term IC50 denotes the concentration that gives 50% inhibition. A lower IC50 goes with greater potency in that assay. Turning to “Obtustatin (CTTGPCCRQCKLKPAGTTCWKTSLTSHYCTGKSCDCPLYPG)”, the “inhibition of tumor development (tumor volume)” value with Lewis lung carcinoma is “by about half”. For the same substance, the IC50 with α1β1 integrin is 0.0005 µM; in the assay with α2β1 integrin, > 10 µM; with α4β1 integrin, > 10 µM. Moreover, the “apoptosis (caspase-3)” value is “not in MV3 cells” in [1] and “induced significant apoptosis” in [3]. For the same substance, the “formation of HMVEC tubes on Matrigel” value with HMVECs was “completely abolished”. The “growth (BrdU incorporation)” value in assay [2] is listed as “inhibited growth”. Besides, the “inhibitory activity on angiogenesis (fractal dimension)” value in the assay with angiogenesis was “up to 30 % of control”.
